This is an account of results in patent US6586424B2, “Tyrosine kinase inhibitors” (Merck & Co., Inc., priority 1999, dated 2003).

Counter-ions that a name gives are not always drawn.

Compound `c1ccc(Nc2ncc(-c3cccc4ccccc34)s2)nc1` [Compound 5-9, (5-Naphthalen-1-yl-thiazol-2-yl)-pyridin-2-yl-amine] gave a melting point of 223.5 to 226 °C.

As for `Fc1ccc(-c2cnc(Nc3ccccn3)s2)cc1` [Compound 5-20, [5-(4-Fluoro-phenyl)-thiazol-2-yl]-pyridin-2-yl-amine], the melting point was in the range of 239 to 240 °C.

Turning to `FC(F)(F)c1ccccc1-c1cnc(Nc2ccccn2)s1` [Compound 5-14, Pyridin-2-yl[5-(2-trifluoromethyl-phenyl)-thiazol-2-yl]-amine], the melting point was 195 to 203 °C.

Take `Fc1ccccc1-c1cnc(Nc2ccccn2)s1` [Compound 5-18, [5-(2-Fluoro-phenyl)-thiazol-2-yl]-pyridin-2-yl-amine]: the melting point is 227 to 228 °C.

For the compound `COC(=O)c1cccc(Nc2ncc(-c3ccccc3)s2)n1` [Compound 4-6, 6-(5-Phenyl-thiazol-2-ylamino)-pyridine-2-carboxylic Acid Methyl Ester], the melting point is 231 to 232 °C.

In turn, `CCc1cnc(Nc2ccccn2)s1` [Compound 4-18, (5-Ethyl-thiazol-2-yl)-pyridin-2-yl-amine] gave a melting point of 113 °C.

For `Clc1ccc(-c2cnc(Nc3ccccn3)s2)cc1` [Compound 5-23, [5-(4-Chloro-phenyl)-thiazol-2-yl]-pyridin-2-yl-amine], the melting point is over 250 °C.

`Clc1ccc(-c2cnc(Nc3ccccn3)s2)cc1Cl` [Compound 5-24, [5-(3,4-dichloro-phenyl)-thiazol-2-yl]-pyridin-2-yl-amine] displayed a melting point of over 250 °C.

As to `FC(F)(F)c1ccc(-c2cnc(Nc3ccccn3)s2)cc1` [Compound 5-16, Pyridin-2-yl-[5-(4-trifluoromethyl-phenyl)-thiazol-2-yl]-amine], the melting point is over 250 °C.

With `Cc1cccc(-c2cnc(Nc3ccccn3)s2)c1` [Compound 5-7, Pyridin-2-yl-(5-m-tolyl-thiazol-2-yl)-amine], the melting point was 204 to 205 °C.

Compound `Clc1ccccc1-c1cnc(Nc2ccccn2)s1` [Compound 5-21, [5-(2-Chloro-phenyl)-thiazol-2-yl]-pyridin-2-yl-amine] displayed a melting point of 213 to 215 °C.

As to `FC(F)(F)c1cccc(-c2cnc(Nc3ccccn3)s2)c1` [Compound 5-15, Pyridin-2-yl-[5-(3-trifluoromethyl-phenyl)-thiazol-2-yl]-amine], the melting point fell in the range of 242 to 244 °C.

As for `Fc1cccc(-c2cnc(Nc3ccccn3)s2)c1` [Compound 5-19, [5-(3-Fluoro-phenyl)-thiazol-2-yl]-pyridin-2-yl-amine], the melting point is over 250 °C.

Turning to `Brc1ccc(Nc2ncc(-c3ccccc3)s2)nc1` (as salt: HBr) [Compound 4-4, (5-Bromo-pyridin-2-yl)-(5-phenyl-thiazol-2-yl)-amine], the melting point is over 220 °C.

Compound `Cc1ccccc1-c1cnc(Nc2ccccn2)s1` [Compound 5-6, Pyridin-2-yl-(5-o-tolyl-thiazol-2-yl)-amine] displayed a melting point of 155 to 160 °C.
